Like-named read-outs stand apart in the source and are kept apart here.

Data set [1] deals with DX5-B1 KO uterine sarcoma. Nature of the data set: Uterine sarcoma formed from MES-SA DX5 cells lacking ABCB1 expression (DX5-B1 KO). It counts as in vivo.
The next data set has as its system N6/ADR cells. Nature of the data set: Vincristine cytotoxicity assay on N6/ADR cells (CellTiter-Glo). The settings on record: for IC50: Homo sapiens. The class given is cell-based, human. On the procedure:
(§1) The effect of antibodies on vincristine cytotoxicity was evaluated on N6/ADR, a doxorubicin-selected, ABCB1-positive variant of the human acute lymphoblastic leukemia (ALL) cell line, NALM6. Cells were plated in 0.05 mL of Assay Media (RPMI-1640 +10% FBS) at 5000 cells/well in white flat bottom 96-well tissue culture plates. Vincristine was prepared at 2X final assay concentration by serial dilution from 200 uM in assay media containing test antibodies or control antibodies at 100 ug/mL (2X final concentration), or valspodar, a small molecule KPB1 inhibitor at 7 uM (2X final concentration). An equivalent volume (0.05 mL) of the vincristine/antibody mixture was added to the N6/ADR cells in 96-well plates. The plates were then incubated at 37° C., in 5% CO2. After 72 hr plates were equilibrated to room temperature and cell viability assessed using Promega® CellTiter-Glo® Luminescent Cell Viability Assay according to the manufacturer’s recommended protocol. Luminescence was measured on a Molecular Devices® FlexStation® 3 Multi-Mode Microplate Reader and data analyzed using GraphPad Prism 8.0 software.
as §1, with “Cytotoxicity Assays. The effect” for “The effect”, “a doxorubicin-selected, B1-positive variant of” for “a doxorubicin-selected, ABCB1-positive variant of”, “small molecule B1 inhibitor at” for “small molecule KPB1 inhibitor at”, “8.0 software. Half maximal inhibitory concentration (IC50) is the concentration of drug (vincristine or other chemotherapy cytotoxic agent) where the response (cell growth) is reduced by 50%.” for “8.0 software.”
Background: Cellular ATP, detected with luciferase, serves as a proxy for viable cell number.

Data set [2] deals with human MDR1 extracellular loops 1 and 4 (ECD1, ECD4). Description: Epitope mapping with mutant human MDR1 expressed on 293T cells (flow cytometry). The class given is binding. As to conditions: mutant versus WT human ABCB1; preliminary epitope mapping. An excerpt: To determine binding of anti-MDR1 mAbs listed in Table 2 to the two major extracellular loops 1 and 4 of MDR1, various mutations were constructed to alter or substitute these two loops. To examine binding to cynomolgus extracellular loops, the extracellular loop 1 and/or loop 4 of cynomolgus MDR1 were grafted (with a C-terminal FLAG tag) to substitute for the human loops in the human MDR1 using standard techniques. To examine binding dependence on the normal human loops, MDR1 variants with deletion 79-102 and deletion 82-99 in loop 1 were also generated. Loop 1 is also referred to as ECD1. Loop 4 is also referred to as ECD4. These mutant MDR1 efflux pump variants were expressed on 293T cells using standard methods to generate cells that could be used to distinguish binding of various anti-MDR1 mAbs. The different cells were incubated with different anti-MDR1 mAbs for about 1 hour at 4° C. The cells were washed twice with FACS buffer (PBS containing 0.5% BSA). Alexa647 labeled goat anti-human antibody was added as a secondary antibody, and the samples were incubated on ice for another 1 hour. Samples were washed again and analyzed by flow cytometry.
FIG. 9 summarizes the findings from preliminary epitope mapping using mutant human MDR1. […] For example, anti-MDR1 mAb B1.129 requires ECD1 and ECD4 for binding to human MDR1. All of the anti-MDR1 antibodies contact ECD4. […] ECD1 refers to the first extracellular domain of human ABCB1, ECD4 refers to the fourth extracellular domain of human ABCB1 and “others” refers to the remainder of the extracellular domains 2-3 and 5-6 of human ABCB1. Only binding to ECD1 and ECD4 was tested.
A general note: Flow cytometry measures light scatter and fluorescence of single cells or particles in a stream.

The next data set has as its target T1, human MDR1 (Homo sapiens, UniProt P08183).
T1 construct: expressed in transfected cells
Description: Efflux blockade of MDR1 fluorescent substrates (flow cytometry). The class given is cell-based. On the procedure: HEK 293T cells expressing human MDR1 or MES-SA/DX5 cells expressing human MDR1 were washed several times and aliquoted into 96-well plates as 50 µl aliquots/well at a cell density of 1 x 10e6 cells per ml in phenol red-free DMEM. Cells were mixed with 300 nM to 1 nM antibodies and incubated for 1 h at 37° C. To determine efflux blockade cells were incubated in the presence of B1 fluorescent substrates as follows: 0.6 µM Rhodamine; 5 µM […] (DiOC2(3)) or 0.6 µM Calcein AM for 1.5 h at 37° C. The cells were then washed twice and finally resuspended in […] PBS. Rhodamine, DiOC2(3) or Calcein AM fluorescence were measured by flow cytometry.
Effect of anti-MDR1 antibodies on efflux of MDR1 substrates Calcein, DIOC2, and Rhodamine was assessed as described in efflux blockade experimental procedure.

The subject of data set [3] is MES-SA DX5 uterine sarcoma. Nature of the data set: MES-SA DX5 drug-resistant uterine sarcoma model in nude mice. It counts as in vivo. As to conditions: MES-SA DX5 tumors in vivo. On the procedure: Anti-ABCB1 antibodies B1.129, B1.261, B1.223, B1.225, B1.188, B1.28, and B1.226 were tested for effect on growth of tumors in immunodeficient mice. The following cancer cell lines were used for generating tumor models.
MES-SA DX5: The multi drug-resistant cell line MES-SA/Dx5 (Sigma. 95051031) was derived from the human uterine sarcoma cell line MES-SA (Sigma Catalogue number. 95051030) which was originally obtained from a tumour from a person at the time of hysterectomy. […] Cross resistance to bleomycin, cisplatin, carmustine, 5-fluorouracil or methotrexate was not observed.
Nude mice were implanted with MES-SA DX5 cells to model uterine sarcoma. Anti-B1 monoclonal antibodies are efficacious in MES-SA DX5 uterine sarcoma model in nude mice.

Take `CC(=O)O[C@H]1C(=O)[C@@]2(C)[C@H]([C@H](OC(=O)c3ccccc3)[C@]3(O)C[C@H](OC(=O)[C@H](O)[C@@H](NC(=O)c4ccccc4)c4ccccc4)C(C)=C1C3(C)C)[C@]1(OC(C)=O)CO[C@@H]1C[C@@H]2O` [paclitaxel]: in data set [1], the “sensitivity of tumor to paclitaxel” value is given as “sensitive”.
For `CC[C@]1(O)C[C@H]2CN(CCc3c([nH]c4ccccc34)[C@@](C(=O)OC)(c3cc4c(cc3OC)N(C=O)[C@H]3[C@@](O)(C(=O)OC)[C@H](OC(C)=O)[C@]5(CC)C=CCN6CC[C@]43[C@@H]65)C2)C1` [Vincristine, vincristine], the IC50 turned out to be 4120 pM in the data set with N6/ADR cells (72 h, read-out: IC50 (pM), cytotoxicity to N6/ADR cells by vincristine) and 543 pM with N6/ADR cells (IC50 of vincristine alone or with antibody, N6/ADR cells, 72 hr, read-out: IC50 (nM), vincristine cytotoxicity).
Consider “15D3: anti-ABCB1 antibody known as 15D3; VH SEQ ID NO:287, VL SEQ ID NO:284 [reference compound]”, for which, in data set [2], the “ECD1 required for antibody binding to human ABCB1” value is “do not require” and the “ECD4 required for antibody binding to human ABCB1” value is “bind to an epitope that includes ECD4 sequences”. Besides, in the data set with human MDR1 (293T.hB1 cell line), the “inhibition of efflux of DIOC2” value was “no observable effect” and the “inhibition of efflux of Rhodamine” value is listed as “low inhibition”. In the data set with human MDR1 (MES-SA/Dx5 cells), the “inhibition of efflux of DIOC2” value was “no observable effect” and the “inhibition of efflux of Rhodamine” value was “no effect”. Moreover, in the data set on N6/ADR cells (N6/ADR cells), the “potentiation of vincristine mediated cytotoxicity” value was “did not potentiate”. The “sensitization of MES-SA DX5 uterine sarcoma to paclitaxel” value in data set [3] is “did not sensitize”.
As to “KPA08: anti-ABCB1 antibody with two heavy chains from 15D3 and two light chains from MRK16 [reference compound]”, in data set [2], the “ECD1 required for antibody binding to human ABCB1” value is “do not require” and the “ECD4 required for antibody binding to human ABCB1” value was “bind to an epitope that includes ECD4 sequences”.
As for “MRK16: anti-ABCB1 antibody known as MRK16; VH SEQ ID NO:286, VL SEQ ID NO:283”, in the data set on N6/ADR cells (N6/ADR cells), the “potentiation of vincristine mediated cytotoxicity” value is given as “did not potentiate”.

These data come from patent US20230203156A1, “ANTI-MDR1 ANTIBODIES AND USES THEREOF” (KENJOCKETY BIOTECHNOLOGY, INC., priority 2020, published 2023).
